# Experimental data taken from patent publication US20150157633A1, “WNT PROTEIN SIGNALLING INHIBITORS” (The Board of Regents of the University of Texas System, priority 2012, published 2015).
# Entries after “also recorded” stand apart in the source; their conditions may differ.
# Tests used:
# Wnt5A = experiment: Wnt5A-dependent antagonism of Wnt/β-catenin signaling, STF reporter in HEK293 cells; assay type: cell-based; conditions: Wnt3A-containing conditioned medium
# Procedure: (§1) Luciferase reporter assays. Wnt-Gaussia luciferase secretion and SuperTopFlash assays were conducted as described using a Dual Luciferase kit (Promega) (Chen et al., 2009).
# Wnt1-GFP = experiment: Organotypic embryonic kidney culture from Wnt1-GFP mice; assay type: cell-based
# Procedure: Organotypic kidney culture. E11.5 urogenital systems were removed and bisected in sterile phosphate buffered saline (PBS) and then the individual halves were cultured in […] of media at the air-media interface on 24-well tissue culture treated, 6.5 mm diameter, […] pore size Transwell filters (Corning, catalog no. 3422). The media (DMEM with 10% fetal bovine serum (FBS) and Pen/Strep) was supplemented with either DMSO or IWP2 and replaced with fresh media every 12, 24, or 48 hours. All treatments were repeated at least three times with a minimum of six individual kidneys from six distinct embryos each time.
# Jnk = experiment: Wnt7B-induced Jnk phosphorylation in L fibroblasts; assay type: cell-based, Mouse; conditions: L fibroblasts transfected with Wnt7B DNA
# Wnt-GL fusion proteins = experiment: Wnt-Gaussia luciferase secretion assay in HEK293 cells; assay type: cell-based; conditions: HEK293 cells expressing one of several Wnt-GL proteins
# Procedure: as §1
# Hh = conditions: previously demonstrated (Chen et al., 2009); cited from earlier work
# HHAT = HHAT (Homo sapiens, UniProt Q5VTY9); experiment: Click chemistry labeling of Hh protein with alkynyl-PA (Hh fatty acylation); assay type: cell-based
# Sequence of HHAT (Q5VTY9 whole entry, species assumed): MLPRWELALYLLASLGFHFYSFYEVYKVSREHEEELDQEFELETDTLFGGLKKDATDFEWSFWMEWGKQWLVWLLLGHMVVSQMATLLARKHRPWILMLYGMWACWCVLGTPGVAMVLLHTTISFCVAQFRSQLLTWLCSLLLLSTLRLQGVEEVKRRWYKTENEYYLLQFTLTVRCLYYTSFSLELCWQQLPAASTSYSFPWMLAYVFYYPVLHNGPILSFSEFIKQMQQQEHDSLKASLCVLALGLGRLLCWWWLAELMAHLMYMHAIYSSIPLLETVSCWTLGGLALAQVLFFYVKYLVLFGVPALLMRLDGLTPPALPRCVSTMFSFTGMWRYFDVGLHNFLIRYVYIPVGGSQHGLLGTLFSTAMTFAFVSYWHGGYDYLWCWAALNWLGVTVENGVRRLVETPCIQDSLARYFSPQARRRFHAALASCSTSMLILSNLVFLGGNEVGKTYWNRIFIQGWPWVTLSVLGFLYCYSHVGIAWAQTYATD
# Notch = conditions: previously demonstrated (Chen et al., 2009); cited from earlier work
# Porcn = molecular target: T1, Porcn (Homo sapiens, UniProt Q9H237); experiment: Click chemistry labeling of Wnt3A-Fc with alkynyl-PA (Wnt fatty acylation); assay type: cell-based
# T1 construct: endogenous in cells; host or cells: HEK293
# T1 sequence (Q9H237 1-461): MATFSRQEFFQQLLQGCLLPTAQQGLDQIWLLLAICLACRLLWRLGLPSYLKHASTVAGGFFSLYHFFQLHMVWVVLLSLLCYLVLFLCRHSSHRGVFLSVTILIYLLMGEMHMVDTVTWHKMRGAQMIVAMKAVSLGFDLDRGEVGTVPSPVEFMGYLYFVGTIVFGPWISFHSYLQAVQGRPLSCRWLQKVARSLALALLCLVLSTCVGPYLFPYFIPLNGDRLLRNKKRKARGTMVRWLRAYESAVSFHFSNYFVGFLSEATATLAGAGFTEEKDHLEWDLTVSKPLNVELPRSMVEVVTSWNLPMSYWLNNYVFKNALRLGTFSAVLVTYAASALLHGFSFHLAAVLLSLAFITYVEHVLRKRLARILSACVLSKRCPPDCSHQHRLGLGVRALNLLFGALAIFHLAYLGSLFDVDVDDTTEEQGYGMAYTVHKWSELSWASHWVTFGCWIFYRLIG
# Procedure: Click chemistry. HEK293 cells transiently transfected with the Wnt3A-Fc DNA expression construct were treated with C16 ω-alkynyl fatty acid (see Reagents; 100 μM final concentration) for six hours as previously described (9) in the presence or DMSO or various IWP compounds. C16 ω-alkynyl fatty acid-labeled Wnt3A-Fc protein isolated from cell lysate using Protein A sepharose was then subjected to a copper catalyzed alkyne-azide cycloaddition with biotin-azide with protein immobilized on the sepharose. The biotinylated Wnt protein run on SDS PAGE was detected using HRP conjugated streptavidin.
# Dv12 = Dv12 phosphorylation in HeLa cells (Western blot); assay type: cell-based; conditions: cell-autonomous Wnt signaling
# [1] = test system: general protein secretion; conditions: previously demonstrated (Chen et al., 2009); cited from earlier work
# Wnt/β-catenin pathway [2] = experiment: Wnt-responsive EGFP reporter in transgenic zebrafish embryos (7XTCF-siam:EGFP); assay type: in vivo; conditions: for Wnt signaling activity (EGFP reporter): embryos treated from 4 hpf for 20 hours, compound in medium
# Wnt/β-catenin pathway [3] = experiment: Wnt reporter GFP in cultured zebrafish primary embryonic fibroblasts; assay type: cell-based; conditions: fibroblasts from 6 hpf embryos, GFP visualized 20 hrs later
# Source text: Zebrafish embryonic cell cultures were initiated from embryos at the shield stage (6 hpf). The embryos were dissociated in trypsin/EDTA solution with gentle homogenization and pipetting. After centrifugation, the collected cells were resuspended in F12/L15/DMEM medium and placed into a 24-well tissue culture plate.
# [4] = test system: Wnt-planar cell polarity (Wnt/PCP) signaling; experiment: Convergence and extension gastrulation movements, whole mount in situ hybridization; assay type: in vivo, zebrafish; conditions: embryos treated starting 4 hpf
# Engrailed (eng1a) = experiment: eng1a expression at the midbrain/hindbrain boundary, in situ hybridization; assay type: in vivo, zebrafish; conditions: embryos (4 hpf) treated for 20 hours
# tailfin regeneration = experiment: Caudal fin regeneration assay in zebrafish larvae; assay type: in vivo; conditions: larvae resected at 3 days post fertilization, IWP12 50 μM, 4 days
# fin regrowth = experiment: Resumption of caudal fin regrowth after removal of compound; assay type: in vivo, zebrafish; conditions: resected caudal fins, water containing IWR-1 for 7 d, then removal
# Source text: Achieving transient repression of pathological Wnt response without incurring permanent damage to normal stem cell function is a key anticancer therapeutic goal.
# Axin2 = Axin2 expression in DLD-1 cells; assay type: cell-based; conditions: exposure for 2 h
# Source text: Aberrant transcriptional induction of Wnt/β-catenin target genes is typically observed in CRC cells that harbor loss-of-function mutations in the APC tumor suppressor.
Compound,production of non-canonical Wnt (Wnt5A) (Wnt5A),"tubule induction (Wnt1-GFP; E11.5 embryonic kidney culture, Wnt/β-catenin-dependent process)","accumulation of Wnt1 on the cell surface (Wnt1-GFP; E11.5 embryonic kidney, treated in vitro for 24 hours)",activation (phosphorylation) of Jnk (Jnk),accumulation of Wnt proteins in the cell culture medium (Wnt-GL fusion proteins),cellular responses mediated by Hh (Hh),fatty acylation of Hh mediated by Hhat (HHAT),cellular responses mediated by Notch (Notch),Wnt protein acylation (Porcn),Dv12 phosphorylation (Dv12),general protein secretion [1],"excess of IWP12 equivalent in activity to IWR1 (Wnt/β-catenin pathway [2]; EGFP reporter fluorescence, posterior region)",Wnt signaling activity (EGFP reporter) (Wnt/β-catenin pathway [2]),posterior body morphogenesis (Wnt/β-catenin pathway [2]; zebrafish embryos),Wnt/β-catenin pathway response (GFP) (Wnt/β-catenin pathway [3]),convergence and extension gastrulation movements [4],expression of MHB marker Engrailed (eng1a) (Engrailed (eng1a)),tailfin regeneration following resection (tailfin regeneration),fin tissue regeneration after chemical removal (fin regrowth),expression of Axin2 (Axin2)
Cc1ccc2nc(NC(=O)CSc3nc4c(c(=O)n3-c3ccccc3)SCC4)sc2c1 [IWP2],inhibits the production of a non-canonical Wnt (Wnt5A),disrupt tubule induction,block the accumulation of Wnt1 on the cell surface,disrupted,abrogated the accumulation of Wnt proteins in the cell culture medium,does not block,does not block fatty acylation,does not block,disrupts Wnt protein acylation,inhibits Dv12 phosphorylation,does not block,,,,,,,,,
Cc1ccc2nc(NC(=O)CSc3nc4c(c(=O)n3C)SC(C)C4)sc2c1 (stereo not drawn) [IWP12],,,,,,,,,,,,approximately 10 fold,loss of Wnt signaling activity; also recorded: Dose-dependent effects,severe effect on posterior body morphogenesis,loss of Wnt/β-catenin pathway responses,block convergence and extension gastrulation movements,decreased expression of the MHB marker Engrailed (eng1a),block juvenile fish tailfin regeneration,,
O=C(Nc1cccc2cccnc12)c1ccc(N2C(=O)[C@@H]3[C@H](C2=O)[C@@H]2C=C[C@H]3C2)cc1 [IWR1],,,,,,,,,,,,,Dose-dependent effects,,,,,,able to regenerate tissue to nearly normal levels after chemical removal,a decrease in the expression of Axin2
